Results: US9096591B2, “Tetracyclic compounds” (Medivation Technologies, Inc., priority 2007, dated 2015)

What was measured:
[1] = system: adrenergic receptors α1D, α2A, α2B; serotonin receptor 5-HT6; dopamine receptor D2L; assay: Classification of compounds (Type 1-4) from receptor binding and neurite outgrowth
Description: Compounds of the invention that inhibit binding of a ligand to adrenergic receptors α1D, α2A, α2B and serotonin receptor 5-HT6 by at least about 80% as determined in a suitable assay such as the assays described herein can be classified as Type 1 compounds. […] In one variation, binding of a ligand to serotonin receptor 5-HT7 is at least about 80%. […] Weak inhibition of binding of a ligand to the histamine H1 receptor is permitted as agonists of this receptor have been implicated in stimulating memory as well as weight gain. In one variation, binding to histamine receptor H1 is inhibited by less than about 80%. […] Compounds that inhibit binding of a ligand to the dopamine D2L receptor by at least about 80% as determined in a suitable assay such as the assay described herein can be classified as Type 2 compounds.
In one variation, Type 1 compounds further inhibit binding of a ligand to dopamine receptor D2L by less than about 80% as determined in a suitable assay known in the art such as the assay described herein. […] In one variation, binding of a ligand to serotonin receptor 5-HT7, 5-HT2A and/or 5-HT2C is inhibited by at least about 80% as determined in a suitable assay such as the assays described herein. […] In one variation, binding of a ligand to histamine receptor H1 and/or H2 is inhibited by less than about 80% as determined by a suitable assay known in the art such as the assays described herein.
In one variation, biding to serotonin receptor 5-HT2A is inhibited by at least about 80% as determined in a suitable assay know in the art such as the assay described herein.

[2] = system: rat brain mitochondria; assay: Ca2+-induced swelling of mitochondria (MPT pore opening); type: biochemical, Wistar rats; details: rat brain mitochondria; for A540 increase in mitochondrial suspension after addition of 100 μM of compound: 100 μM compound; for IC50: read-out: IC50, Ca2+-induced (25-50 μM) swelling of brain mitochondria, Ca2+ 25-50 μM
Protocol: Rat liver and brain mitochondria were prepared from male Wistar rats. The rats were euthanized in a CO2 chamber followed by decapitation the procedure being in compliance with the Guidelines for Animal Experiments at IPAC RAS. […]
Brain mitochondria were isolated from the pooled forebrains of two rats. The modified method of Sims was used to isolate and purify brain mitochondria in a Percoll gradient. The brain was homogenized in “buffer A” (225 mM mannitol, 75 mM sucrose, 5 mM HEPES, 1 mM EGTA, pH 7.4 [KOH]) and centrifuged for 10 min at 1300 g. The supernatant was centrifuged for 10 min at 10000 g, and then the pellet was suspended in 15% Percoll and layered on a discontinuous gradient consisting of 40 and 23% Percoll, respectively, which was then centrifuged for 10 min at 30000 g without using brakes. The mitochondria were collected from the interface of the lower two layers and after resuspension in “buffer A”, the suspension was centrifuged at 16600 g for 10 min, then the pellet was resuspended in “buffer A”, BSA (10 mg/mL) was added to bind free fatty acids; and the suspensions was centrifuged again at 6300 g for 10 min. Following centrifugation the pelleted mitochondria were re-suspended in isolation medium without EGTA to achieve a protein concentration of 15-20 mg/ml.
Mitochondrial swelling caused by influx of solutes through open PT pores results in an increase in light transmission (i.e., a reduced turbidity). This turbidity change offers a convenient and frequently used assay of the MPT by measurement of absorbance in mitochondrial suspensions. In the present study, the MPT induced by Ca^2+ and inorganic phosphate (Ca/Pi) was monitored by absorbance changes at 540 nm in a cuvette in a Beckman DU 640 spectrophotometer in 1 ml of buffer A plus 0.8 μM rotenone, 5 mM succinate, 1 mM KH2PO4 and 0.5 mg or 0.2 mg protein of isolated liver or brain mitochondria, accordingly. Reaction was started by the addition of triggering agent (Ca^2+). Pre-treatment and reaction were performed at 30° C. Swelling rate was quantified as ΔA540/min/mg, calculated, in all cases, from a tangent to the steepest portion of the plot of A540 versus time.
Ca^2+-induced Swelling of mitochondria was used as the primary screening test for compounds influence on MPT pore opening. […] But the inhibition of swelling may be connected not only with direct inhibition of MPT pore opening but also with the impairment of respiratory function of mitochondria and with the compounds action on calcium transport into mitochondria. For the primary estimation of these possibilities the mitochondrial membrane potential and calcium retention capacity of mitochondria were measured. […] New synthesized compounds (except C-14 and C-43) alone induced an increase of brain mitochondria suspension turbidity. The mechanism of such effect needs additional investigations.

[3] = system: mice; assay: recognition test of new location of a known object (spatial memory); type: in vivo; details: for overall effect on memory (in words): doses 0.05-1 mg/kg

| SMILES | compound type (classification by receptor binding profile and neurite outgrowth) [1] | A540 increase in mitochondrial suspension after addition of 100 μM of compound [2] [rel.units] | IC50 [2] [µM] | Influence on memory in the test recognition new localization of known object ([3]; Dose of Compound 0.05 mg/kg) | Influence on memory in the test recognition new localization of known object ([3]; Dose of Compound 0.1 mg/kg) | Influence on memory in the test recognition new localization of known object ([3]; Dose of Compound 0.5 mg/kg) | Influence on memory in the test recognition new localization of known object ([3]; Dose of Compound 1.0 mg/kg) | effect of the dose on exploration time / memory (in words) ([3]; mice, dose 0.05 mg/kg) | overall effect on memory (in words) ([3]; mice) | further results |
| --- | --- | --- | --- | --- | --- | --- | --- | --- | --- | --- |
| CN1CCc2c(c3cc(I)ccc3n2CCc2ccccc2F)C1 [Compound 89, 5-(2-fluorophenethyl)-2,3,4,5-tetrahydro-8-iodo-2-methyl-1H-pyrido[4,3-b]indole] | Type one |  |  |  |  |  |  |  |  |  |
| CCOc1ccc(CCn2c3c(c4cc(C)ccc42)CN(C)CC3)cc1 [Compound 334, 5-[2-(4-Ethoxy-phenyl)-ethyl]-2,8-dimethyl-2,3,4,5-tetrahydro-1H-pyrido[4,3-b]indole] | Type one |  |  |  |  |  |  |  |  |  |
| Cc1ccc(CCn2c3c(c4cc(Br)ccc42)CN(C)CC3)cn1 [Compound 487, 8-bromo-2-methyl-5-(2-(6-methylpyridin-3-yl)ethyl)-2,3,4,5-tetrahydro-1H-pyrido[4,3-b]indole] | Type one |  |  |  |  |  |  |  |  |  |
| Cc1ccc2c(c1)c1c(n2CCc2nc(-c3ccccc3)cs2)CCN(C)C1 [Compound C1-5] |  | 30 | 18 ± 16 | − | + | − | + | no effect | stimulating effect on memory | activity on memory compared with dimebon (in words) ([3]; comparison of effective doses): at a level dimebon; time exploring the object in a new location, % of the total time ([3]; mice, dose 0.1 mg/kg): 57.9±7.5%; time exploring the object in the known position, % of the total time ([3]; mice, dose 0.1 mg/kg): 42.1±7.5%; effect of the dose on exploration time / memory (in words) ([3]; mice, dose 0.5 mg/kg): disappearance of the stimulating effect on memory; time exploring the object in a new location, % of the total time ([3]; mice, dose 1 mg/kg): 57.4±8.4%; time exploring the object in the known position, % of the total time ([3]; mice, dose 1 mg/kg): 42.6±8.4% |
| COc1ccc2c(c1)c1c(n2CCc2nc(-c3ccccc3)cs2)CCN(C)C1 [Compound C1-6] |  | 1.5 | 12.7 ± 6.2 |  |  |  |  |  |  |  |
| CN1CCc2c(c3cc(F)ccc3n2CCc2nc(-c3ccccc3)cs2)C1 [Compound C1-7] |  | >30 | 28 ± 6 |  |  |  |  |  |  |  |
| CN1CCc2c(c3ccccc3n2CCc2noc(-c3ccccc3)n2)C1 [Compound C4-1] |  | 10 | 3.9 ± 1.6 | − | + | − | − |  |  |  |
| Cc1ccc2c(c1)c1c(n2CCc2noc(-c3ccccc3)n2)CCN(C)C1 [Compound C4-4] |  | 14 | 6.7 ± 1.2 | − | + | + | + | no effect | activating effect on memory | time after training for which the activating effect on memory is preserved ([3]; mice): about 48 hours; time exploring the object in a new location, % of the total time ([3]; mice, dose 0.1 mg/kg): 58.5±9.6%; time exploring the object in the known position, % of the total time ([3]; mice, dose 0.1 mg/kg): 41.5±9.6%; time exploring the object in a new location, % of the total time ([3]; mice, dose 0.5 mg/kg): 59.1±4.2%; time exploring the object in the known position, % of the total time ([3]; mice, dose 0.5 mg/kg): 40.9±4.2% |
| CN1CCc2c(c3cc(Cl)ccc3n2CCc2noc(-c3ccccc3)n2)C1 [Compound C4-6] |  | 28 | 6 ± 1.2 | − | − | + | + | not effective | stimulated memory | activity on memory: times weaker than dimebon ([3]; comparison of effective doses): approximately 5 times; effect of the dose on exploration time / memory (in words) ([3]; mice, dose 0.1 mg/kg): not effective; time exploring the object in a new location, % of the total time ([3]; mice, dose 0.5 mg/kg): 61.0±4.8%; time exploring the object in the known position, % of the total time ([3]; mice, dose 0.5 mg/kg): 39.0±4.8%; time exploring the object in a new location, % of the total time ([3]; mice, dose 1 mg/kg): 56.3±7.7%; time exploring the object in the known position, % of the total time ([3]; mice, dose 1 mg/kg): 43.7±7.7% |
